Article PMC10818380, “Triphenylphosphonium Analogs of Short Peptide Related to Bactenecin 7 and Oncocin 112 as Antimicrobial Agents” (Pharmaceutics, 2024)
Where two headings read alike, the source gives them in different places. Square brackets hold non-standard residues; d marks the D form. Peptide text beside a SMILES is read from it. * marks the point of attachment. X2 = c1ccc([P+](CCCCCCCCCCN*)(c2ccccc2)c2ccccc2)cc1; X1 = c1ccc([P+](CCN*)(c2ccccc2)c2ccccc2)cc1

Key:
[1] = system: E. coli SQ171 ΔtolC (A2059G) and JW5503 (∆tolC) (KanS) ermC; test: Antibacterial activity on agar plates, macrolide-resistant strains; type: cell-based; conditions: Figure 3
Procedure: (§1) Antibiotic activity was also evaluated against the following strains: E. coli JW5503 ΔtolC (KanS) ermC, modified with the plasmid pKH80 [59], providing resistance to erythromycin due to the expression of ErmC methyltransferase; E. coli SQ171 ΔtolC transformed with the pAM552 plasmid; E. coli SQ171 ΔtolC modified with the pAM552 plasmid with A2059G substitution in the 23S rRNA; E. coli JW1052 ΔmdtH; E. coli JW0912 ΔompF; and E. coli JW0368 ΔsbmA [57]. The procedure was performed as described previously in [33]. In short, Petri dishes filled with LB solid medium containing a selective antibiotic and 1.5% agar were covered with the tested strains. After that, 1 µL of 10 mM water solutions of Bac(1–10), Bac(1–10, R/Y), Bac(1–10, R/Y)-Cn-TPP, TPP-C10-Bac(1–10, R/Y), and Onc112, LEV (25 μg/mL) in water, and ERY (5 mg/mL and 50 mg/mL) in DMSO were applied onto the agar plates. After overnight incubation at 37 °C, the plates were scanned using the ChemiDoc^TM Imagining System (Bio-Rad Laboratories, Hercules, CA, USA) in three channels (Cy2, Cy3, and Cy5). The obtained images were processed in the Image Lab^TM software (Version 6.0.1, Bio-Rad).

E. coli ΔsbmA = test: Antibacterial activity on agar plates, ΔsbmA strain versus wild type; type: cell-based; conditions: Figure 4B
Procedure: as §1

B. subtilis 168 = test: microbe, parasite or virus in culture; type: cell-based
Procedure: (§2) The MIC values for Bac(1–10), Bac(1–10, R/Y), Bac(1–10, R/Y)-Cn-TPP, TPP-C10-Bac(1–10, R/Y), and Onc112 were determined via LB broth microdilution, as recommended by CLSI in the Methods for Dilution Antimicrobial Susceptibility Tests for Bacteria that Grow Aerobically, Approved Standard, 9th ed., CLSI document M07-A9, using in-house-prepared panels. The compounds were diluted in a 96-well microtiter plate to final concentrations ranging from 0.1 to 100 µM in a 200 µL aliquot of the bacterial suspension, followed by incubation at 37 °C for 18 h. The cell concentration was estimated according to the absorbance (A600). The measurements were performed with a VICTOR X5 Multilabel Plate Reader (PerkinElmer, Waltham, MA, USA). The following bacterial strains were used: E. coli BW25113, E. coli JW0368 ΔsbmA, B. subtilis 168, and B. subtilis CFR [39].

B. subtilis CFR = test: microbe, parasite or virus in culture; type: cell-based; conditions: CFR, 18 h
Procedure: as §2

E. coli JW0368 ΔsbmA = test: microbe, parasite or virus in culture; type: cell-based; conditions: for MIC: E. coli ∆sbmA, 37 °C, 18 h; for difference of MIC values, E. coli ΔsbmA versus wild type: ratio of MIC values of Table 1
Procedure: as §2

B. subtilis = test: Membrane potential with fluorescent probe diS-C3-(5); type: cell-based; conditions: diS-C3-(5) fluorescence
Procedure: The membrane potential of B. subtilis was assessed by measuring the fluorescence emitted by the potential-dependent probe, diS-C3-(5). Bacterial cells derived from the overnight culture of B. subtilis were inoculated into a fresh LB medium and allowed to grow for 24 h until reaching an optical density of 0.8 at 600 nm. Subsequently, the bacteria were subjected to a 20-fold dilution in a buffer comprising 100 mM of KCl and 10 mM of Tris, adjusted to a pH of 7.4. Fluorescence measurements were conducted at 670 nm (with excitation at 630 nm) using a Fluorat-02-Panorama fluorimeter manufactured by Lumex Instruments in St. Petersburg, Russia.

HEK293T = test: cells; type: cell-based, human; conditions: 72 h
Procedure: (§3) The cytotoxicity of the substances under study was tested using the MTT (3-(4,5-dimethylthiazol-2-yl)-2,5-diphenyltetrazolium bromide) assay with some modifications. The detailed procedure for the MTT assay is given in the Supplementary Materials (Section S5).
(§4) Two thousand five hundred cells per well for the MCF7, HEK293T, and A549 cell lines or 4000 cells per well for the VA13 cell line were plated in 135 µL of DMEM-F12 media with 10% FBS (both Gibco, Waltham, MA, USA) in a 96-well plate and were incubated in a 5% CO2 incubator for the first 16 h, without treatment. Then 15 µL of media-DMSO solutions of the tested substances were added to the cells (the final DMSO concentrations in the media were 1% or less), and the cells were treated for 72 h with 25 nM–50 µM (eight dilutions) of the tested substances (triplicate each). Serial dilutions of DMSO and doxorubicin were used as controls. The MTT reagent (Paneco LLC, Moscow, Russia) was then added to the cells at a final concentration of 0.5 g/L (10× stock solution in PBS was used) and incubated for 2.5 h at 37 °C in the incubator under an atmosphere of 5%
(§5) CO2. The MTT solution was then discarded, and 140 µL of DMSO (PharmaMed LLC, Krasnodar, Russia) was added. The plates were swayed on a shaker (60 rpm) to dissolve the formazan. The absorbance was measured using the VICTOR X5 Multilabel Plate Reader (PerkinElmer, Wa l th a m, MA, USA) at a wavelength of 565 nm (in order to measure formazan concentration). The resu l ts were used to construct a dose-response graph and to estimate IC50 values.
(§6) Figure S11.The dependencies of viability of cells after treatment by tested compounds.
(§7) (1 picture or pasted object on this page, not shown here)

MCF7 = test: cells; type: cell-based, human
Procedure: as §3, §4, §5, §6, §7

VA13 = test: cells; type: cell-based, human
Procedure: as §3, §4, §5, §6, §7

[2] = system: E. coli ΔompF, E. coli ΔmdtH; test: Antibacterial activity on agar plates, ΔompF and ΔmdtH strains versus wild type; type: cell-based; conditions: Figure 4
Procedure: as §1

[3] = HEK293T, MTT, read-out: IC50 (50% inhibition of viability of cells)
[4] = MCF7, 72 h, MTT, read-out: IC50 (50% inhibition of viability of cells)
[5] = VA13, 72 h, MTT, read-out: IC50 (50% inhibition of viability of cells)

Row | Compound | bacterial growth inhibition in macrolide-resistant E. coli strains [1] | antibacterial activity on E. coli ΔsbmA compared with wild-type strain (E. coli ΔsbmA) | MIC (B. subtilis 168; B. subtilis 168, 37 °C, 18 h) [µM] | MIC (B. subtilis CFR) [µM] | MIC (E. coli JW0368 ΔsbmA) [µM] | difference of MIC values, E. coli ΔsbmA versus wild type (E. coli JW0368 ΔsbmA) | effect on membrane potential of B. subtilis (B. subtilis; concentration not given) | IC50 (HEK293T; [3]) [µM] | IC50 (MCF7; [4]) [µM] | IC50 (VA13; [5]) [µM] | comparison of MIC values, E. coli ΔsbmA versus wild type (E. coli JW0368 ΔsbmA; MIC values of Table 1) | effect on membrane potential of B. subtilis (B. subtilis; 1 µM) | growth inhibition of E. coli ΔompF and ΔmdtH compared with wild-type strain [2] | MIC (B. subtilis 168; 168, 18 h) [µM] | IC50 (HEK293T) [µM] | IC50 (MCF7; 72 h) [µM] | IC50 (VA13; 72 h) [µM]
1 | CC[C@H](C)[C@H](NC(=O)[C@H](CCCNC(=N)N)NC(=O)[C@@H](N)CCCNC(=N)N)C(=O)N[C@@H](CCCNC(=N)N)C(=O)N1CCC[C@H]1C(=O)N[C@@H](CCCNC(=N)N)C(=O)N1CCC[C@H]1C(=O)N1CCC[C@H]1C(=O)N[C@@H](Cc1ccc(O)cc1)C(=O)N[C@@H](CC(C)C)C(=O)NCC[P+](c1ccccc1)(c1ccccc1)c1ccccc1 [Compound 3, Bac(1–10, R/Y)-C2-TPP] (H-RRIRPRPPYL-X1; N-terminus assumed) | showed bacterial-growth-inhibiting activity | a decrease in the antibacterial activity | 12.5 | 50 | >100 | four | a decrease in the membrane potential | > 50 | > 20 | > 50 |  |  |  |  |  |  | 
2 | CC[C@H](C)[C@H](NC(=O)[C@H](CCCNC(=N)N)NC(=O)[C@@H](N)CCCNC(=N)N)C(=O)N[C@@H](CCCNC(=N)N)C(=O)N1CCC[C@H]1C(=O)N[C@@H](CCCNC(=N)N)C(=O)N1CCC[C@H]1C(=O)N1CCC[C@H]1C(=O)N[C@@H](Cc1ccc(O)cc1)C(=O)N[C@@H](CC(C)C)C(=O)NCCCCCCCCCC[P+](c1ccccc1)(c1ccccc1)c1ccccc1 [Compound 4, Bac(1–10, R/Y)-C10-TPP] (H-RRIRPRPPYL-X2; N-terminus assumed) | showed bacterial-growth-inhibiting activity |  | 1.6 | 0.8 | 100 |  |  | 3.1 ± 0.5 | 10 ± 1 | 12 ± 1 | the same | rapid decrease in the membrane potential |  |  |  |  | 
3 | CC[C@H](C)[C@H](NC(=O)[C@@H](CCCNC(=N)N)NC(=O)[C@H](CCCNC(=N)N)NC(=O)[C@@H]1CCCN1C(=O)[C@@H]1CCCN1C(=O)[C@H](CCCNC(=N)N)NC(=O)[C@@H]1CCCN1C(=O)[C@H](CCCNC(=N)N)NC(=O)[C@@H]1CCCN1C(=O)[C@H](CC(C)C)NC(=O)[C@H](Cc1ccc(O)cc1)NC(=O)[C@@H]1CCCN1C(=O)[C@@H]1CCCN1C(=O)[C@H](CCCCN)NC(=O)[C@H](CC(=O)O)NC(=O)[C@@H](N)C(C)C)C(=O)N[C@@H](Cc1ccc(O)cc1)C(=O)N[C@@H](CC(N)=O)C(=O)N[C@H](CCCNC(=N)N)C(N)=O [Onc112, reference compound] (H-VDKPPYLPRPRPPR[dR]IYN[dR]-NH2; N-terminus assumed) | showed activity against resistant E. coli bacteria comparable to that demonstrated in the wild type | a decrease in the antibacterial activity |  | >50 | >90 | approximately eight |  |  |  |  |  |  | no significant difference in the growth inhibition | >50 | > 50 | > 20 | > 50
